Assay results taken from patent US20250263395A1, “COMPOUNDS THAT MEDIATE PROTEIN DEGRADATION AND METHODS OF USE THEREOF” (Monte Rosa Therapeutics AG, priority 2022, published 2025).

Key:
CDK2 = CDK2 (Homo sapiens (Human), UniProt P24941); assay: CDK2 NanoBiT assay (HiBiT-tagged CDK2 degradation); format: cell-based; conditions: HEK293, HEK293 clonal line, C-terminal HiBiT tag on CDK2, LgBiT; 24 hours
Summary of the method: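 HEK293 line with CRISPR knock-in C-terminal HiBiT-tagged CDK2 and stable LgBiT, preincubated 16 h with live-cell substrate, then compound-treated 24 h at 37° C, 5% CO2 (30 μM stock). Luminescence normalized to plate negative and positive controls; EC50 from 3-parameter logistic fit, Hill slope 1.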

CRBN-DDB1 = CRBN-DDB1 (Homo sapiens (Human), UniProt Q96SW2); assay: CRBN HTRF assay (Cy5-Thalidomide probe displacement); format: binding; conditions: CRBN-DDB1 2.5 nM, Cy5-Thalidomide 100 nM, 30 min; Ki from geometric mean IC50 by Cheng-Prusoff
Summary of the method: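 HTRF displacement of Cy5-thalidomide probe (100 nM) from His-CRBN-DDB1 (2.5 nM) with anti-His terbium cryptate, in HEPES/NaCl/TCEP/EDTA/Tween20 buffer. 10-point 1:3 compound series, 30 min at ambient temperature; signal normalised to DMSO and lenalidomide controls, IC50 fitted and Ki derived by Cheng-Prusoff.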

Chain of CRBN-DDB1 (Q96SW2 whole entry): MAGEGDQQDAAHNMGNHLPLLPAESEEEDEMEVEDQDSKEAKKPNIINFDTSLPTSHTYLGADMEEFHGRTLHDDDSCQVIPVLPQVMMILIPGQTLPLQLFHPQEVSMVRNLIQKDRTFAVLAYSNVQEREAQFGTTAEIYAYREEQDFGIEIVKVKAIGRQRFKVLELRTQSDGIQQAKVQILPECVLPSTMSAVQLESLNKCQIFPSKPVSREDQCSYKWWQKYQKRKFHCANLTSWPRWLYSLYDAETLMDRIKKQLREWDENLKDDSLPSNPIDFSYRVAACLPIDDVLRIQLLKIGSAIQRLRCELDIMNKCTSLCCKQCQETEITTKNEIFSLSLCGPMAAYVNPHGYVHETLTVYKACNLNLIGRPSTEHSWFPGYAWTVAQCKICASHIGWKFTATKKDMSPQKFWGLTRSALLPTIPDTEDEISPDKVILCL
Chain of CRBN-DDB1 (Q16531 whole entry partner): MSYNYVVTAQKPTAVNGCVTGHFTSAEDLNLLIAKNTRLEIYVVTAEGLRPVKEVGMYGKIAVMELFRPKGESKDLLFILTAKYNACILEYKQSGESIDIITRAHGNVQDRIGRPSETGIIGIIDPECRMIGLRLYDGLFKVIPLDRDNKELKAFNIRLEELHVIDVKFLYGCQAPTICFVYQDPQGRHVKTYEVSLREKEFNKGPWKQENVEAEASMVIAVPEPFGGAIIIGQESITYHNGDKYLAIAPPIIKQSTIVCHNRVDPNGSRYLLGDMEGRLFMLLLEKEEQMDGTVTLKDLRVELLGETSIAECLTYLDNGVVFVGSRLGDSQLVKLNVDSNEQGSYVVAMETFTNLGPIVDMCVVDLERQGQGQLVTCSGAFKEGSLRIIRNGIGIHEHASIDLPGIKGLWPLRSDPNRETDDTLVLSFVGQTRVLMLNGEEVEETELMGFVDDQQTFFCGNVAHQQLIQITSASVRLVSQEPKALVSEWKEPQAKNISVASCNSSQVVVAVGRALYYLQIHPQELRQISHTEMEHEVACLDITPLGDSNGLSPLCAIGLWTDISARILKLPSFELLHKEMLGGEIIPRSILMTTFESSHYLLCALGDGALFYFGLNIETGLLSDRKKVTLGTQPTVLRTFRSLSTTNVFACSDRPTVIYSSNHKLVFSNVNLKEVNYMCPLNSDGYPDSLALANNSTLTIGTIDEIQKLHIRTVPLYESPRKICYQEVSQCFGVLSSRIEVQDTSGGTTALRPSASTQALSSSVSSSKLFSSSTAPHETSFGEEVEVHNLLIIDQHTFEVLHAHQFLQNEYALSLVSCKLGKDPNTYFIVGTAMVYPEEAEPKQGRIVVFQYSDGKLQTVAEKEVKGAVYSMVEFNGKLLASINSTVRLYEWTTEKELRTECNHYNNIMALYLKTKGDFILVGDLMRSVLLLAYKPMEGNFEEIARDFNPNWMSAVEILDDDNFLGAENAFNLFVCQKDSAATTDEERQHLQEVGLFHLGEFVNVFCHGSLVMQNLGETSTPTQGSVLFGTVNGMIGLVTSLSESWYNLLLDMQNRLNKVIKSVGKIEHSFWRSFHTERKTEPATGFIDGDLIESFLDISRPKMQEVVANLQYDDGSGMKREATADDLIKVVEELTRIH

Row | Structure (SMILES) | Dmax (CDK2) [%] | Ki (CRBN-DDB1) [nM]
1 | Cc1cc(Cl)ccc1N(C)C(=O)C12CC(OC(=O)NC3CN(c4cc(F)c(C5CCC(=O)NC5=O)c(F)c4)C3)(C1)C2 (stereo not drawn) [Compound 112, 3-((4-chloro-2-methylphenyl)(methyl)carbamoyl)bicyclo[1.1.1]pentan-1-yl (1-(4-(2,6-dioxopiperidin-3-yl)-3,5-difluorophenyl)azetidin-3-yl)carbamate] | 10 to 50 | ≤ 100
2 | Cc1cc(Cl)ccc1N(C)C(=O)N1CC(OC(=O)NC2CN(c3cc(F)c(C4CCC(=O)NC4=O)c(F)c3)C2)C1 (stereo not drawn) [Compound 113, 1-((4-chloro-2-methylphenyl)(methyl)carbamoyl)azetidin-3-yl (1-(4-(2,6-dioxopiperidin-3-yl)-3,5-difluorophenyl)azetidin-3-yl)carbamate] | 10 to 50 | ≤ 100
3 | Cc1cccc(N(C)C(=O)C23CC(OC(=O)NC4CN(c5cc(F)c(C6CCC(=O)NC6=O)c(F)c5)C4)(C2)C3)c1C (stereo not drawn) [Compound 114, 3-((2,3-dimethylphenyl)(methyl)carbamoyl)bicyclo[1.1.1]pentan-1-yl (1-(4-(2,6-dioxopiperidin-3-yl)-3,5-difluorophenyl)azetidin-3-yl)carbamate] | 10 to 50 | ≤ 100
4 | Cc1c(Cl)cccc1N(C)C(=O)C12CC(OC(=O)NC3CN(c4cc(F)c(C5CCC(=O)NC5=O)c(F)c4)C3)(C1)C2 (stereo not drawn) [Compound 115, 3-((3-chloro-2-methylphenyl)(methyl)carbamoyl)bicyclo[1.1.1]pentan-1-yl (1-(4-(2,6-dioxopiperidin-3-yl)-3,5-difluorophenyl)azetidin-3-yl)carbamate] | 10 to 50 | ≤ 100
5 | Cc1ccc(N(C)C(=O)N2CC(OC(=O)NC3CN(c4cc(F)c(C5CCC(=O)NC5=O)c(F)c4)C3)C2)c(C)c1 (stereo not drawn) [Compound 116, 1-((2,4-dimethylphenyl)(methyl)carbamoyl)azetidin-3-yl (1-(4-(2,6-dioxopiperidin-3-yl)-3,5-difluorophenyl)azetidin-3-yl)carbamate] | 10 to 50 | ≤ 100
6 | Cc1ccc(N(C)C(=O)C23CC(OC(=O)NC4CN(c5cc(F)c(C6CCC(=O)NC6=O)c(F)c5)C4)(C2)C3)c(C)c1 (stereo not drawn) [Compound 117, 3-((2,4-dimethylphenyl)(methyl)carbamoyl)bicyclo[1.1.1]pentan-1-yl (1-(4-(2,6-dioxopiperidin-3-yl)-3,5-difluorophenyl)azetidin-3-yl)carbamate] | 10 to 50 | ≤ 100
7 | CN(C(=O)C12CC(OC(=O)NC3CN(c4cc(F)c(C5CCC(=O)NC5=O)c(F)c4)C3)(C1)C2)c1ccc(C#N)cc1 (stereo not drawn) [Compound 120, 3-((4-cyanophenyl)(methyl)carbamoyl)bicyclo[1.1.1]pentan-1-yl (1-(4-(2,6-dioxopiperidin-3-yl)-3,5-difluorophenyl)azetidin-3-yl)carbamate] | 10 to 50 | ≤ 100
8 | COc1c(N2CC(C)(Nc3nnc(C4CC5(CCC5)C4)o3)C2)ccc(C2CCC(=O)NC2=O)c1F (stereo not drawn) [Compound 121, 3-(2-fluoro-3-methoxy-4-(3-methyl-3-((5-(spiro[3.3]heptan-2-yl)-1,3,4-oxadiazol-2-yl)amino)azetidin-1-yl)phenyl)piperidine-2,6-dione] | 10 to 50 | ≤ 100
9 | CC1(CCc2nnc(NC3CN(c4cc(F)c(C5CCC(=O)NC5=O)c(F)c4)C3)o2)CC1 (stereo not drawn) [Compound 122, 3-(2,6-difluoro-4-(3-((5-(2-(1-methylcyclopropyl)ethyl)-1,3,4-oxadiazol-2-yl)amino)azetidin-1-yl)phenyl)piperidine-2,6-dione] | 10 to 50 | ≤ 100
10 | CN(C(=O)C12CC(OC(=O)NC3CN(c4cc(F)c(C5CCC(=O)NC5=O)c(F)c4)C3)(C1)C2)c1cccc(C#N)c1 (stereo not drawn) [Compound 123, 3-((3-cyanophenyl)(methyl)carbamoyl)bicyclo[1.1.1]pentan-1-yl (1-(4-(2,6-dioxopiperidin-3-yl)-3,5-difluorophenyl)azetidin-3-yl)carbamate] | 10 to 50 | ≤ 100
11 | O=C1CCC(c2c(F)cc(N3CC(Nc4nnc(-c5ccccn5)o4)C3)cc2F)C(=O)N1 (stereo not drawn) [Compound 124, 3-(2,6-difluoro-4-(3-((5-(pyridin-2-yl)-1,3,4-oxadiazol-2-yl)amino)azetidin-1-yl)phenyl)piperidine-2,6-dione] | 10 to 50 | ≤ 100
12 | CN(C(=O)C12CC(OC(=O)NC3CN(c4cc(F)c(C5CCC(=O)NC5=O)c(F)c4)C3)(C1)C2)c1ccc(OC(F)(F)F)cc1 (stereo not drawn) [Compound 125, 3-(methyl(4-(trifluoromethoxy)phenyl)carbamoyl)bicyclo[1.1.1]pentan-1-yl (1-(4-(2,6-dioxopiperidin-3-yl)-3,5-difluorophenyl)azetidin-3-yl)carbamate] | 50 to 80 | ≤ 100
13 | O=C1CCC(c2c(F)cc(N3CC(NC(=O)OC45CC(C(=O)N6CCC6)(C4)C5)C3)cc2F)C(=O)N1 (stereo not drawn) [Compound 126, 3-(azetidine-1-carbonyl)bicyclo[1.1.1]pentan-1-yl (1-(4-(2,6-dioxopiperidin-3-yl)-3,5-difluorophenyl)azetidin-3-yl)carbamate] | 10 to 50 | ≤ 100
14 | O=C1CCC(c2c(F)cc(N3CC(Nc4nnc(CCC5CC5)o4)C3)cc2F)C(=O)N1 (stereo not drawn) [Compound 127, 3-(4-(3-((5-(2-cyclopropylethyl)-1,3,4-oxadiazol-2-yl)amino)azetidin-1-yl)-2,6-difluorophenyl)piperidine-2,6-dione] | 10 to 50 | ≤ 100
15 | O=C1CCC(c2c(F)cc(N3CC(Nc4nnc(-c5cccnc5)o4)C3)cc2F)C(=O)N1 (stereo not drawn) [Compound 128, 3-(2,6-difluoro-4-(3-((5-(pyridin-3-yl)-1,3,4-oxadiazol-2-yl)amino)azetidin-1-yl)phenyl)piperidine-2,6-dione] | 50 to 80 | ≤ 100
16 | CN(C(=O)C12CC(OC(=O)NC3CN(c4cc(F)c(C5CCC(=O)NC5=O)c(F)c4)C3)(C1)C2)c1ccc(Cl)cc1 (stereo not drawn) [Compound 129, 3-((4-chlorophenyl)(methyl)carbamoyl)bicyclo[1.1.1]pentan-1-yl (1-(4-(2,6-dioxopiperidin-3-yl)-3,5-difluorophenyl)azetidin-3-yl)carbamate] | 50 to 80 | ≤ 100
17 | COc1cccc(N(C)C(=O)C23CC(OC(=O)NC4CN(c5cc(F)c(C6CCC(=O)NC6=O)c(F)c5)C4)(C2)C3)c1 (stereo not drawn) [Compound 130, 3-((3-methoxyphenyl)(methyl)carbamoyl)bicyclo[1.1.1]pentan-1-yl (1-(4-(2,6-dioxopiperidin-3-yl)-3,5-difluorophenyl)azetidin-3-yl)carbamate] | 50 to 80 | ≤ 100
18 | CN(C(=O)C12CC(OC(=O)NC3CN(c4cc(F)c(C5CCC(=O)NC5=O)c(F)c4)C3)(C1)C2)c1cccc(Cl)c1 (stereo not drawn) [Compound 131, 3-((3-chlorophenyl)(methyl)carbamoyl)bicyclo[1.1.1]pentan-1-yl (1-(4-(2,6-dioxopiperidin-3-yl)-3,5-difluorophenyl)azetidin-3-yl)carbamate] | 50 to 80 | ≤ 100
19 | CN(C(=O)C12CC(OC(=O)NC3CN(c4cc(F)c(C5CCC(=O)NC5=O)c(F)c4)C3)(C1)C2)c1ccc(F)cc1 (stereo not drawn) [Compound 132, 3-((4-fluorophenyl)(methyl)carbamoyl)bicyclo[1.1.1]pentan-1-yl (1-(4-(2,6-dioxopiperidin-3-yl)-3,5-difluorophenyl)azetidin-3-yl)carbamate] | 50 to 80 | ≤ 100
20 | Cc1ccc(N(C)C(=O)C23CC(OC(=O)NC4CN(c5cc(F)c(C6CCC(=O)NC6=O)c(F)c5)C4)(C2)C3)cc1 (stereo not drawn) [Compound 133, 3-(methyl (p-tolyl)carbamoyl)bicyclo[1.1.1]pentan-1-yl (1-(4-(2,6-dioxopiperidin-3-yl)-3,5-difluorophenyl)azetidin-3-yl)carbamate] | 50 to 80 | ≤ 100
21 | Cc1cccc(N(C)C(=O)C23CC(OC(=O)NC4CN(c5cc(F)c(C6CCC(=O)NC6=O)c(F)c5)C4)(C2)C3)c1 (stereo not drawn) [Compound 134, 3-(methyl(m-tolyl)carbamoyl)bicyclo[1.1.1]pentan-1-yl (1-(4-(2,6-dioxopiperidin-3-yl)-3,5-difluorophenyl)azetidin-3-yl)carbamate] | 50 to 80 | ≤ 100
22 | Cc1ccccc1N(C)C(=O)C12CC(OC(=O)NC3CN(c4cc(F)c(C5CCC(=O)NC5=O)c(F)c4)C3)(C1)C2 (stereo not drawn) [Compound 135, 3-(methyl(o-tolyl)carbamoyl)bicyclo[1.1.1]pentan-1-yl (1-(4-(2,6-dioxopiperidin-3-yl)-3,5-difluorophenyl)azetidin-3-yl)carbamate] | 50 to 80 | 100 to 1000
23 | COc1c(N2CC(C)(Nc3nnc(-c4ccc(OC(F)(F)F)cc4)o3)C2)ccc(C2CCC(=O)NC2=O)c1F (stereo not drawn) [Compound 136, 3-(2-fluoro-3-methoxy-4-(3-methyl-3-((5-(4-(trifluoromethoxy)phenyl)-1,3,4-oxadiazol-2-yl)amino)azetidin-1-yl)phenyl)piperidine-2,6-dione] | 50 to 80 | ≤ 100
24 | CN(C(=O)N1CC(OC(=O)NC2CN(c3cc(F)c(C4CCC(=O)NC4=O)c(F)c3)C2)C1)c1ccc(Cl)cc1 (stereo not drawn) [Compound 138, 1-((4-chlorophenyl)(methyl)carbamoyl)azetidin-3-yl (1-(4-(2,6-dioxopiperidin-3-yl)-3,5-difluorophenyl)azetidin-3-yl)carbamate] | 50 to 80 | ≤ 100
